# Assay results taken from ChEMBL document CHEMBL4359819, “Exploiting the 1-(4-fluorobenzyl)piperazine fragment for the development of novel tyrosinase inhibitors as anti-melanogenic agents: Design, synthesis, structural insights and biological profile” (Eur J Med Chem, 2019).
# pIC50: −log10 of the molar value. Calls of active or inactive are those of the source. The rule behind the calls is not given here.
# What was measured:
# Tyrosinase = target: T1, Tyrosinase (Agaricus bisporus, UniProt O42713); test: Inhibition of mushroom tyrosinase assessed as reduction in dopachrome production using L-DOPA as substrate after 5 mins by spectrophotometric analysis
# T1 sequence (O42713 whole entry): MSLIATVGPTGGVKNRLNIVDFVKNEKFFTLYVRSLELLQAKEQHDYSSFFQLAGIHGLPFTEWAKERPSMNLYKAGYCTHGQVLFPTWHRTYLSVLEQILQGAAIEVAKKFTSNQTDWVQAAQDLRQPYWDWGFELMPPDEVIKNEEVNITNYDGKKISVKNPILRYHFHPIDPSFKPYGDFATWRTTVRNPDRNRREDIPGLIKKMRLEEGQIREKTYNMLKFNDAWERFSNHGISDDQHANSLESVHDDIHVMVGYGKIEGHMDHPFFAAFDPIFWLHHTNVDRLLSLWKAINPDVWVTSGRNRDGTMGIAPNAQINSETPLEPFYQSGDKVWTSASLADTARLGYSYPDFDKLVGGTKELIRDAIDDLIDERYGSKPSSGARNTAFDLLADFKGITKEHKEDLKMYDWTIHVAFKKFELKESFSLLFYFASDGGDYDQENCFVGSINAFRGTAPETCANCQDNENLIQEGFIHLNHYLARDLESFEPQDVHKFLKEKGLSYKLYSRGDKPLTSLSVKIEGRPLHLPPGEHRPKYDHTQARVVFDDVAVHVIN
# [1] = target: T2, Tyrosinase (Agaricus bisporus) (UniProt O42713); test: Competitive inhibition of mushroom tyrosinase assessed as Vmax for substrate at 0.48 to 1.92 uM using varying levels of L-DOPA as substrate by Lineweaver-Burk plot analysis
# T2 sequence (whole entry): T1 sequence (O42713 whole entry)
# B16-F10 = test: Inhibition of alpha-MSH-stimulated melanogenesis in mouse B16F10 cells assessed as melanin content at 10 uM measured after 48 hrs relative to control; format: functional; conditions: B16-F10, 48 h
# [2] = target: T2, Tyrosinase (Agaricus bisporus); test: Competitive inhibition of mushroom tyrosinase assessed as increase in Km for substrate at 0.48 to 1.92 uM using varying levels of L-DOPA as substrate by Lineweaver-Burk plot analysis
# [3] = target: T2, Tyrosinase (Agaricus bisporus); test: Potency index, ratio of kojic acid IC50 to compound IC50 for inhibition of mushroom tyrosinase using L-DOPA as substrate
structure (smiles),measurement,setting,value
O=C(c1ccc(C(F)(F)F)cc1C(F)(F)F)N1CCN(Cc2ccc(F)cc2)CC1,pIC50,Tyrosinase,5.79
O=C(c1ccc(Br)cc1)N1CCN(Cc2ccc(F)cc2)CC1,pIC50,Tyrosinase,5.34
COc1ccc(C(=O)N2CCN(Cc3ccc(F)cc3)CC2)c(OC)c1,pIC50,Tyrosinase,5.85
O=C(c1ccccc1Br)N1CCN(Cc2ccc(F)cc2)CC1,pIC50,Tyrosinase,5.69
O=C(c1ccc([N+](=O)[O-])cc1[N+](=O)[O-])N1CCN(Cc2ccc(F)cc2)CC1,inhibition,[1],Active
same,inhibition at 10 µM,B16-F10,22.8%
same,pIC50,Tyrosinase,6.02
same,inhibition,[2],Active
same,Ratio IC50,[3],20
O=C(c1ccc(F)cc1F)N1CCN(Cc2ccc(F)cc2)CC1,pIC50,Tyrosinase,5.72
Nc1ccc(C(=O)N2CCN(Cc3ccc(F)cc3)CC2)c(N)c1,pIC50,Tyrosinase,5.44
O=C(c1cccc(Br)c1)N1CCN(Cc2ccc(F)cc2)CC1,pIC50,Tyrosinase,5.62
O=C(c1ccc(O)cc1O)N1CCN(Cc2ccc(F)cc2)CC1,pIC50,Tyrosinase,5.83
Cc1ccc(C(=O)N2CCN(Cc3ccc(F)cc3)CC2)c(C)c1,pIC50,Tyrosinase,5.46
O=C(c1cccc([N+](=O)[O-])c1)N1CCN(Cc2ccc(F)cc2)CC1,pIC50,Tyrosinase,5.44
O=C(c1ccc(Cl)cc1)N1CCN(Cc2ccc(F)cc2)CC1,pIC50,Tyrosinase,5.45
O=C(c1cccc(Cl)c1)N1CCN(Cc2ccc(F)cc2)CC1,pIC50,Tyrosinase,5.28
O=C(c1ccccc1[N+](=O)[O-])N1CCN(Cc2ccc(F)cc2)CC1,pIC50,Tyrosinase,6.06
Nc1cccc(C(=O)N2CCN(Cc3ccc(F)cc3)CC2)c1,pIC50,Tyrosinase,5.42
O=C(c1ccc([N+](=O)[O-])cc1)N1CCN(Cc2ccc(F)cc2)CC1,pIC50,Tyrosinase,5.69
O=C(c1ccccc1C(F)(F)F)N1CCN(Cc2ccc(F)cc2)CC1,pIC50,Tyrosinase,6.32
O=C(c1ccccc1Cl)N1CCN(Cc2ccc(F)cc2)CC1,pIC50,Tyrosinase,5.51
O=C(c1ccc(Cl)cc1Cl)N1CCN(Cc2ccc(F)cc2)CC1,pIC50,Tyrosinase,6.10
Nc1ccccc1C(=O)N1CCN(Cc2ccc(F)cc2)CC1,pIC50,Tyrosinase,4.96
Nc1ccc(C(=O)N2CCN(Cc3ccc(F)cc3)CC2)cc1,pIC50,Tyrosinase,4.83
O=C(c1ccc(Br)cc1Br)N1CCN(Cc2ccc(F)cc2)CC1,pIC50,Tyrosinase,5.98
O=C(c1cccc(C(F)(F)F)c1)N1CCN(Cc2ccc(F)cc2)CC1,pIC50,Tyrosinase,5.07
O=C(c1ccc(C(F)(F)F)cc1)N1CCN(Cc2ccc(F)cc2)CC1,pIC50,Tyrosinase,5.47
